# Measured values from patent US20240116985A1, “STAPLED PEPTIDES AND METHODS THEREOF” (priority 2020, published 2024).
# Read-outs that look alike come from different tables or passages of the source.
# How the values were obtained:
# CHI Log D procedure = assay type: physicochemical; details: for chromatographic logD: pH 7.4, CHI Log D; for CHI Log D: pH 7.4
# [1] = molecular target: T1, beta-catenin/TCF4 engagement (Homo sapiens, UniProt P35222); test: Nano-BRET target engagement assay (B-cat-Halo & TCF4-Luc in HEK293 cells); assay type: cell-based; details: for IC50: read-out: NanoBRET Abs IC50; for inhibition at 10 µM: read-out: NanoBRET % inh @ 10 uM
# T1 construct: expressed in transfected cells; host or cells: HEK293
# T1 sequence (P35222 1-781): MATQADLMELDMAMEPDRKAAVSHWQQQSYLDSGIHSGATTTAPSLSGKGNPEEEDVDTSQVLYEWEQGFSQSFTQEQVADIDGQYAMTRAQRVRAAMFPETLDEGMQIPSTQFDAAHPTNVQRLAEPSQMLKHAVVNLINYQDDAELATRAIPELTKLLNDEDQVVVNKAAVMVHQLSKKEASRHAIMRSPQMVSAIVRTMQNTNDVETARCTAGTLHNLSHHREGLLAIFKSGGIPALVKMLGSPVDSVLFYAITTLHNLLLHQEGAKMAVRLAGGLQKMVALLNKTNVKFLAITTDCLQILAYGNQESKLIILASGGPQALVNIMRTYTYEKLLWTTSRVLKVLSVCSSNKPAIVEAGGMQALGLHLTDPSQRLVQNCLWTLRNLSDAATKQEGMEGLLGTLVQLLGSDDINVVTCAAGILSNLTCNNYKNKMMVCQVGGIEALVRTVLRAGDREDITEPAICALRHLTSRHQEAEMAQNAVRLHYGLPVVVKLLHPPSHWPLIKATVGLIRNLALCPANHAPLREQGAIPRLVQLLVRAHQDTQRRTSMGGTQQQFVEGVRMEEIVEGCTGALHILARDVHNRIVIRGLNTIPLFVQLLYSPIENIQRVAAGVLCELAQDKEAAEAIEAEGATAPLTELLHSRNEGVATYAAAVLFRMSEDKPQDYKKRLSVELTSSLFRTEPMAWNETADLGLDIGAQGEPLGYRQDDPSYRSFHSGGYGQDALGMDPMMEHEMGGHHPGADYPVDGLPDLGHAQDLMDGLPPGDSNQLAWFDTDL
# Solubility in PBS = assay type: physicochemical
# Method in brief: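 HPLC quantitation of peptide remaining in the PBS supernatant after ultracentrifugation, referenced to a 50 μM solution in DMSO.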
# [2] = molecular target: T2, full-length beta-Catenin (Uniprot ID P35222) (Homo sapiens, UniProt P35222); test: Fluorescence polarization IC50 (beta-catenin / 5FAM-TCF4 10-53 competition); assay type: binding
# T2 construct: 10 nM full-length beta-Catenin (Uniprot ID P35222)
# T2 sequence (P35222 1-781): T1 sequence (P35222 1-781)
# [3] = fluorescence polarization, read-out: beta-Catenin FP IC50
Structure (SMILES),chromatographic logD (CHI Log D procedure),IC50 ([1]; absolute IC50),Solubility (Solubility in PBS),"IC50 [2, 3]",IC50 [1],Solubility (Solubility in PBS; Solubility (uM)),IC50 ([2]; read-out: beta-Catenin FP IC50),CHI Log D (CHI Log D procedure),"inhibition at 10 µM ([1]; HEK293, @ 10 uM)",IC50 ([2]; read-out: FP EC50),"inhibition at 10 µM ([1]; HEK293, 10 uM)","IC50 ([2]; fluorescence polarization, beta-catenin, read-out: FP EC50)"
"CC(=O)N1CCC[C@]12CC=CCCCC1(CCCC=CCCCCCC[C@@](C)(C(=O)N[C@@H](Cc3ccccc3)C(=O)N[C@@H](Cc3csc4ccccc34)C(=O)N[C@@H](CCC(N)=O)C(N)=O)NC(=O)[C@H](CC(N)=O)NC(=O)[C@H](Cc3ccccc3)NC(=O)[C@H](C)NC(=O)[C@H](C)NC(=O)[C@H](CC(=O)O)NC(=O)[C@H](CC(=O)O)NC1=O)NC(=O)[C@H](CC(C)(C)C)NC(=O)[C@H](CC(=O)O)NC2=O (stereo partly drawn) [I-546, Ac-PL3-Asp-Npg-B5-Asp-Asp-Ala-Ala-Phe-Asn-S8-Phe-BztA-Gln-NH2]",2.4,12100 nM,50 µM,16 nM,,,,,,,,
"CC[C@H](C)[C@@H]1NC(=O)[C@H](CC(=O)O)NC(=O)[C@]2(CC=CCCCC3(CCCC=CCCCCCC[C@@](C)(C(=O)N[C@@H](Cc4ccccc4C(N)=O)C(=O)N[C@@H](Cc4csc5ccccc45)C(=O)N[C@@H](Cc4c[nH]cn4)C(N)=O)NC(=O)[C@H](CC(N)=O)NC(=O)[C@H](Cc4ccccc4)NC(=O)[C@H](C)NC(=O)[C@H](C)NC(=O)[C@H](CCC(=O)O)NC(=O)[C@H](CC(=O)O)NC3=O)NC1=O)CCCN2C(C)=O (stereo partly drawn) [I-514, Ac-PL3-Asp-Ile-B5-Asp-Glu-Ala-Ala-Phe-Asn-S8-2CBMF-BztA-His-NH2]",1.91,> 20000 nM,50 µM,30 nM,,,,,,,,
"CC(=O)N1CCC[C@]12CC=CCCCC1(CCCC=CCCCCCC[C@@](C)(C(=O)N[C@@H](Cc3ccsc3)C(=O)N[C@@H](Cc3csc4ccccc34)C(=O)N[C@@H](CCC(N)=O)C(N)=O)NC(=O)[C@H](CC(N)=O)NC(=O)[C@H](Cc3ccccc3)NC(=O)[C@H](C)NC(=O)[C@H](C)NC(=O)[C@H](CC(=O)O)NC(=O)[C@H](CC(=O)O)NC1=O)NC(=O)[C@H](CC(C)(C)C)NC(=O)[C@H](CC(=O)O)NC2=O (stereo partly drawn) [I-679, Ac-PL3-Asp-Npg-B5-Asp-Asp-Ala-Ala-Phe-Asn-S8-3Thi-BztA-Gln-NH2]",,17100 nM,48 µM,7 nM,,,,2.382,44.8%,7 nM,,
"CC[C@H](C)[C@@H]1NC(=O)[C@H](CC(=O)O)NC(=O)[C@]2(CC=CCCCC3(CCCC=CCCCCCC[C@@](C)(C(=O)N[C@@H](Cc4ccsc4)C(=O)N[C@@H](Cc4csc5ccccc45)C(=O)N[C@@H](CCC(N)=O)C(N)=O)NC(=O)[C@H](CC(N)=O)NC(=O)[C@H](Cc4ccccc4)NC(=O)[C@H](C)NC(=O)[C@H](C)NC(=O)[C@H](CCC(=O)O)NC(=O)[C@H](CC(=O)O)NC3=O)NC1=O)CCCN2C(C)=O (stereo partly drawn) [I-521, Ac-PL3-Asp-Ile-B5-Asp-Glu-Ala-Ala-Phe-Asn-S8-3Thi-BztA-Gln-NH2]",,15400 nM,50 µM,23 nM,,,,2.351,,23 nM,,
"CC(=O)N1CCC[C@]12CC=CCCCC1(CCCC=CCCCCCC[C@@](C)(C(=O)N[C@@H](Cc3ccccc3)C(=O)N[C@@H](Cc3csc4ccccc34)C(=O)N[C@@H](CCC(N)=O)C(N)=O)NC(=O)[C@H](CC(N)=O)NC(=O)[C@H](Cc3ccccc3)NC(=O)[C@H](C)NC(=O)[C@H](C)NC(=O)[C@H](CCC(=O)O)NC(=O)[C@H](CC(=O)O)NC1=O)NC(=O)[C@H](CC(C)C)NC(=O)[C@H](CC(=O)O)NC2=O (stereo partly drawn) [I-576, Ac-PL3-Asp-Leu-B5-Asp-Glu-Ala-Ala-Phe-Asn-S8-Phe-BztA-Gln-NH2]",,11100 nM,46 µM,23 nM,,,,2.348,,23 nM,,

# More lines, now with the values ahead:
chromatographic logD (CHI Log D procedure),IC50 ([1]; absolute IC50),Solubility (Solubility in PBS),"IC50 [2, 3]",IC50 [1],Solubility (Solubility in PBS; Solubility (uM)),IC50 ([2]; read-out: beta-Catenin FP IC50),CHI Log D (CHI Log D procedure),"inhibition at 10 µM ([1]; HEK293, @ 10 uM)",IC50 ([2]; read-out: FP EC50),"inhibition at 10 µM ([1]; HEK293, 10 uM)","IC50 ([2]; fluorescence polarization, beta-catenin, read-out: FP EC50)",Structure (SMILES)
2.17,,,,20900 nM,28 µM,7 nM,,,,,,"CC(=O)N1CCC[C@]12CC=CCCCC1(CCCC=CCCCOC(=O)N3CC[C@@](C(=O)N[C@@H](Cc4ccsc4)C(=O)N[C@@H](Cc4csc5ccccc45)C(=O)N[C@H](Cc4c[nH]cn4)C(N)=O)(C3)NC(=O)[C@H](CC(N)=O)NC(=O)[C@H](Cc3ccccc3)NC(=O)[C@H](C)NC(=O)[C@H](C)NC(=O)[C@H](CC(=O)O)NC(=O)[C@H](CC(=O)O)NC1=O)NC(=O)[C@H](CC(C)(C)C)NC(=O)[C@H](CC(=O)O)NC2=O (stereo partly drawn) [I-813, Ac-PL3-Asp-Npg-B5-Asp-Asp-Ala-Ala-Phe-Asn-PyrS2-3Thi-BztA-dHis-NH2]"
1.67,,,,> 20000 nM,40 µM,16 nM,,,,,,"CC(=O)N1CCC[C@]12CC=CCCCC1(CCCC=CCCCOC(=O)N3CC[C@@](C(=O)N[C@@H](Cc4ccsc4)C(=O)N[C@@H](Cc4csc5ccccc45)C(=O)N[C@@H](CCC(N)=O)C(N)=O)(C3)NC(=O)[C@H](CC(N)=O)NC(=O)[C@H](Cc3ccccc3)NC(=O)[C@H](CCCCNC(=O)c3ccc(CN4CCOCC4)cc3)NC(=O)[C@H](C)NC(=O)[C@H](CC(=O)O)NC(=O)[C@H](CC(=O)O)NC1=O)NC(=O)[C@H](CC(C)(C)C)NC(=O)[C@H](CC(=O)O)NC2=O (stereo partly drawn) [I-890, Ac-PL3-Asp-Npg-B5-Asp-Asp-Ala-[MeMorphBz]Lys-Phe-Asn-PyrS2-3Thi-BztA-Gln-NH2]"
2.34,,10 µM,,4400 nM,,5 nM,,,,,,"CC(=O)N1CCC[C@]12CC=CCCCC1(CCCC=CCCCOC(=O)N3CC[C@@](C(=O)N[C@@H](Cc4ccsc4)C(=O)N[C@@H](Cc4csc5ccccc45)C(=O)N[C@@H](Cc4c[nH]cn4)C(N)=O)(C3)NC(=O)[C@H](Cc3ccccc3)NC(=O)[C@H](Cc3ccccc3)NC(=O)[C@H](C)NC(=O)[C@H](C)NC(=O)[C@H](CC(=O)O)NC(=O)[C@H](CC(=O)O)NC1=O)NC(=O)[C@H](CC(C)(C)C)NC(=O)[C@H](CC(=O)O)NC2=O (stereo partly drawn) [I-808, Ac-PL3-Asp-Npg-B5-Asp-Asp-Ala-Ala-Phe-Phe-PyrS2-3Thi-BztA-His-NH2]"
1.82,,,,26000 nM,44 µM,10 nM,,,,,,"CC(=O)N1CCC[C@]12CC=CCCCC1(CCCC=CCCCOC(=O)N3CC[C@@](C(=O)N[C@@H](Cc4ccsc4)C(=O)N[C@@H](Cc4csc5ccccc45)C(=O)N[C@@H](CCC(N)=O)C(=O)N[C@@H](CCCCNC(=O)c4ccc(CN5CCN(C)CC5)cc4)C(N)=O)(C3)NC(=O)[C@H](CC(N)=O)NC(=O)[C@H](Cc3ccccc3)NC(=O)[C@H](C)NC(=O)[C@H](C)NC(=O)[C@H](CC(=O)O)NC(=O)[C@H](CC(=O)O)NC1=O)NC(=O)[C@H](CC(C)(C)C)NC(=O)[C@H](CC(=O)O)NC2=O (stereo partly drawn) [I-908, Ac-PL3-Asp-Npg-B5-Asp-Asp-Ala-Ala-Phe-Asn-PyrS2-3Thi-BztA-Gln-[4MePipBz]Lys-NH2]"
2.42,,,,,18 µM,56 nM,,,,4.3%,35 nM,"CC(=O)N1CCC[C@]12CC=CCCCC1(CCCC=CCCCOC(=O)N3CC[C@@](C(=O)N[C@@H](Cc4ccsc4)C(=O)N[C@@H](Cc4csc5ccccc45)C(=O)N[C@@H](CCC(N)=O)C(N)=O)(C3)NC(=O)[C@H](CC(N)=O)NC(=O)[C@H](Cc3ccccc3)NC(=O)[C@H](C)NC(=O)[C@H](C)NC(=O)[C@H](CC(C)C)NC(=O)[C@H](CC(=O)O)NC1=O)NC(=O)[C@H](CC(C)(C)C)NC(=O)[C@H](CC(=O)O)NC2=O (stereo partly drawn) [I-846, Ac-PL3-Asp-Npg-B5-Asp-Leu-Ala-Ala-Phe-Asn-PyrS2-3Thi-BztA-Gln-NH2]"
2.31,,,,> 20000 nM,45 µM,24 nM,,,,,,"CC(=O)N1CCC[C@]12CC=CCCCC1(CCCC=CCCCOC(=O)N3CC[C@@](C(=O)N[C@@H](Cc4ccccc4Cl)C(=O)N[C@@H](Cc4csc5ccccc45)C(=O)N[C@@H](CCC(N)=O)C(N)=O)(C3)NC(=O)[C@H](CO)NC(=O)[C@H](Cc3ccccc3)NC(=O)[C@H](C)NC(=O)[C@H](C)NC(=O)[C@H](CC(=O)O)NC(=O)[C@H](CC(=O)O)NC1=O)NC(=O)[C@H](Cc1ccc3ccccc3c1)NC(=O)[C@H](CC(=O)O)NC2=O (stereo partly drawn) [I-1109, Ac-PL3-Asp-2NapA-B5-Asp-Asp-Ala-Ala-Phe-Ser-PyrS2-2C1F-BztA-Gln-NH2]"
